assay: Inhibition of p300/CBP HAT (unknown origin) by scintillation proximity assay; design: species or system Homo sapiens

Row | SMILES | IC50
1 | CC(CN[C@H](C(=O)Nc1ccc(OC2CCN(C(=O)C3CC3)CC2)cn1)c1ccccc1)c1ccc(C#N)cc1 (stereo partly specified) | 0.0267 µM
2 | CN1CCC(Oc2ccc(NC(=O)[C@H](NCCc3ccc(Cl)cc3)c3ccccc3)nc2)CC1 | 0.0266 µM
3 | Cn1cc(COc2ccc(NC(=O)[C@@H](NCCc3ccc(Cl)cc3)c3ccccc3)nc2)cn1 | 0.0168 µM
4 | CC(=O)N1CC(Oc2ccc(NC(=O)[C@H](NC[C@@H](C)c3ccc(C#N)cc3)c3ccccc3)nc2)C1 | 0.0212 µM

Further compounds by falling IC50, results first:

Row | IC50 | SMILES
5 | 0.0233 µM | CC(=O)N1CC(Oc2ccc(NC(=O)[C@H](NCC(C)c3ccc(C#N)cc3)c3cccc(F)c3)nc2)C1 (stereo partly specified)
6 | 0.014 µM | CC(=O)N1CC(Oc2ccc(NC(=O)[C@@H](NC[C@@H](C)c3ccc(C#N)cc3)c3ccccc3)nc2)C1

Reference: ChEMBL document CHEMBL4825741, “Novel Histone Acetyltransferase (HAT) Inhibitors for Treating Diseases” (ACS Med Chem Lett, 2021)
